Source: PMC7353089, “The Hepatotoxicity of Alantolactone and Germacrone: Their Influence on Cholesterol and Lipid Metabolism in Differentiated HepaRG Cells” (Nutrients, 2020)
Read-outs that look alike come from different tables or passages of the source.

Legend:
dHepaRG cells [1] = test: MTT cell viability assay; type: cell-based, human; details: for toxicity toward dHepaRG cells compared with cancer cells: comparison of own IC50 with previously reported IC50 values; for cell viability: 24 and 72 h, MTT method and LDH leakage
Experimental: Cryopreserved HepaRG cells were obtained from Biopredic International (Rennes, France). Undifferentiated cells were seeded according to the supplier protocols in 96-well plates for the viability assays, and in 6-well plates for the mRNA and western blot measurements. The cells were cultured for two weeks in Williams E Medium with GlutaMAX™ (Invitrogen, Paisley, UK) supplemented with 10% fetal bovine serum, 2 mM glutamine, 100 IU/mL penicillin, 100 μg/mL streptomycin, 5 μg/mL insulin, and 50 μM hydrocortisone hemisuccinate. The cells were afterwards cultured for another 2-week period in the same medium supplemented with 1.7% DMSO. The medium was replaced every 2–3 days.
In the 96-well plates, viability was evaluated using the methylthiazole-tetrazolium (MTT) colorimetric assay. After 24 and 72-h exposure, 25 μL of MTT solution (3 mg of MTT in 1 mL of phosphate buffered saline, PBS) were added to each well. The plates were incubated at 37 °C for an additional 2 h, after which the medium was removed and the formed formazan was dissolved in 50 μL of 0.08 M HCl in isopropanol during 30 min shaking. The absorbance in each well was read at 570 and 690 nm using a spectrophotometer (Tecan Infinite M200, Tecan, Männedorf, Switzerland).

CYP3A4 mRNA = test: RT-qPCR mRNA expression in dHepaRG cells; details: single exposure, also at other than toxic concentrations
Experimental: (§1) The mRNA and protein expression changes were measured after a single administration of ALA and GER. Three concentrations were selected for each compound (non-toxic, non-toxic/slightly toxic and toxic). The cholesterol level of the dHepaRG cells was measured after a multiple exposure of the highest non-toxic concentrations of tested compounds. ATL (30 µM) and GER (100 µM) were administered four times every 24 h. The expression changes of genes and proteins related to cholesterol metabolism were measured in both single and multiple exposure experiments.
All treatments were performed in triplicates and every experiment was performed three times. The cells were washed twice with ice cold phosphate-buffered saline (PBS), scrapped and stored at −80 °C until use. […] The measurement of absorbance at 260 and 280 nm using the NanoDrop ND-1000 UV–VIS Spectrophotometer (Thermo Fisher Scientific, Pardubice, Czech Republic) was used to determine RNA yields and purity. […] Fluorescence data were recorded at the end of each amplification step. Relative expression levels of the target genes were calculated as fold changes in triplicates for each group using the 2^−ΔΔCt method by normalization to the geometric mean of the Ct values of Sdha and Ywhaz, which were used as reference genes.

ICAM-1 mRNA = test: RT-qPCR mRNA expression in dHepaRG cells; type: cell-based, human; details: the highest concentration
Experimental: Three concentrations were selected for each compound (non-toxic, non-toxic/slightly toxic and toxic). […] The expression changes of genes and proteins related to cholesterol metabolism were measured in both single and multiple exposure experiments.
All treatments were performed in triplicates and every experiment was performed three times. The cells were washed twice with ice cold phosphate-buffered saline (PBS), scrapped and stored at −80 °C until use. Total RNA from cells was isolated using TriReagent according to the manufacturer’s instructions (Biotech, Prague, Czech Republic). The purified RNA was dissolved in 40 µL of diethyl pyrocarbonate (DEPC)-treated water (0.01% DEPC in HPLC water, autoclaved) and stored at −80 °C. The measurement of absorbance at 260 and 280 nm using the NanoDrop ND-1000 UV–VIS Spectrophotometer (Thermo Fisher Scientific, Pardubice, Czech Republic) was used to determine RNA yields and purity. […] Fluorescence data were recorded at the end of each amplification step. Relative expression levels of the target genes were calculated as fold changes in triplicates for each group using the 2^−ΔΔCt method [28] by normalization to the geometric mean of the Ct values of Sdha and Ywhaz, which were used as reference genes.

HMGCR mRNA = test: RT-qPCR mRNA expression in dHepaRG cells; type: cell-based, human; details: single exposure, the highest concentration
Experimental: as §1
All treatments were performed in triplicates and every experiment was performed three times. The cells were washed twice with ice cold phosphate-buffered saline (PBS), scrapped and stored at −80 °C until use. Total RNA from cells was isolated using TriReagent according to the manufacturer’s instructions (Biotech, Prague, Czech Republic). The purified RNA was dissolved in 40 µL of diethyl pyrocarbonate (DEPC)-treated water (0.01% DEPC in HPLC water, autoclaved) and stored at −80 °C. The measurement of absorbance at 260 and 280 nm using the NanoDrop ND-1000 UV–VIS Spectrophotometer (Thermo Fisher Scientific, Pardubice, Czech Republic) was used to determine RNA yields and purity. Subsequently, the RNA (4 µg) was treated with 2 U of DNase I (New England Biolabs, Ipswich, MA, USA) in a final volume of 30 µL for 25 min at 37 °C, 1.5 µL of 0.1 M ethylenediaminetetraacetic acid was added and the DNAse was inactivated by heat (5 min at 75 °C). The solution was diluted to a concentration of 0.1 µg/µL. The DNAse treated RNA was stored at −80 °C until further analyses. […] Fluorescence data were recorded at the end of each amplification step. Relative expression levels of the target genes were calculated as fold changes in triplicates for each group using the 2^−ΔΔCt method by normalization to the geometric mean of the Ct values of Sdha and Ywhaz, which were used as reference genes.

SREBP-1c mRNA = test: RT-qPCR mRNA expression in dHepaRG cells; type: cell-based, human
Experimental: (§2) All treatments were performed in triplicates and every experiment was performed three times. The cells were washed twice with ice cold phosphate-buffered saline (PBS), scrapped and stored at −80 °C until use. Total RNA from cells was isolated using TriReagent according to the manufacturer’s instructions (Biotech, Prague, Czech Republic). The purified RNA was dissolved in 40 µL of diethyl pyrocarbonate (DEPC)-treated water (0.01% DEPC in HPLC water, autoclaved) and stored at −80 °C. The measurement of absorbance at 260 and 280 nm using the NanoDrop ND-1000 UV–VIS Spectrophotometer (Thermo Fisher Scientific, Pardubice, Czech Republic) was used to determine RNA yields and purity. Subsequently, the RNA (4 µg) was treated with 2 U of DNase I (New England Biolabs, Ipswich, MA, USA) in a final volume of 30 µL for 25 min at 37 °C, 1.5 µL of 0.1 M ethylenediaminetetraacetic acid was added and the DNAse was inactivated by heat (5 min at 75 °C). […] Fluorescence data were recorded at the end of each amplification step. Relative expression levels of the target genes were calculated as fold changes in triplicates for each group using the 2^−ΔΔCt method [28] by normalization to the geometric mean of the Ct values of Sdha and Ywhaz, which were used as reference genes.

PPARα mRNA = test: RT-qPCR mRNA expression in dHepaRG cells; type: cell-based, human
Experimental: as §2

dHepaRG cells [2] = test: Cholesterol level (Amplex Red Cholesterol Assay kit); type: cell-based, human; details: multiple exposure: four applications every 24 h, cells collected 12 h after the last; 30 μM ATL, 100 μM GER
Experimental: The cholesterol content in the dHepaRG cells was tested using the Amplex Red Cholesterol Assay kit (Invitrogen) according to the manufacturer’s instructions and as per An et al.. The cells were collected 12 h after the last exposure of the tested compounds in a 4-day exposure with a medium change every 24 h. The cells were rinsed three times in PBS to eliminate residual growth medium. Whole cell extracts were prepared by 0.5 mL of RIPA lysis buffer (0.5% sodium deoxycholate, 0.1% SDS, 1% NP-40, 150 mM NaCl, 1 mM DTT, 50 mM Tris–HCl (pH = 7.4) and phenylmethanesulfonyl fluoride. Fluorescence was measured using a microplate reader (Tecan Infinite M200) at 530 nm excitation and 590 nm emission wavelengths. The total cholesterol (TC) content was determined by measuring the cholesterol concentration following digestion with cholesterol esterase (CE). To measure the free cholesterol (FC), CE was omitted from the assay. Three independent experiments were performed. The values obtained from a cholesterol standard curve were normalized to protein content, measured by a BCA assay.

[3] = test system: proliferative liver (HepG2, HuH-7, LO2), breast (MCF7, MDA-MB-231), and glioblastoma cancer cell lines; details: after 12 to 24 h; read-out: IC50 values in proliferative cancer cell lines (approximate); cited from earlier work
[4] = dHepaRG cell viability, 24 h single exposure, read-out: IC50 ± SD, MTT
[5] = dHepaRG cell viability, 72 h single exposure, read-out: IC50 ± SD, MTT
[6] = dHepaRG cells, 24-h treatment, read-out: half-maximal inhibitory concentration of cell viability (approximate)
[7] = single exposure, 6, 12 and 24 h
[8] = single exposure, toxic concentration after 24 h

| Structure (SMILES) | toxicity toward dHepaRG cells compared with cancer cells (dHepaRG cells [1]) | IC50 (dHepaRG cells [1]; [4]) [µM] | IC50 (dHepaRG cells [1]; [5]) [µM] | highest non-toxic concentration (dHepaRG cells [1]; dHepaRG cells) [µM] | IC50 (dHepaRG cells [1]; [6]) [µM] | cell viability (dHepaRG cells [1]; dHepaRG cells) | CYP3A4 mRNA expression (CYP3A4 mRNA) | ICAM-1 mRNA amount (ICAM-1 mRNA; 12-h and 24-h exposure) | HMGCR mRNA level (HMGCR mRNA; 6-h exposure) | HMGCR mRNA level (HMGCR mRNA; 12- and 24-h exposure) | SREBP-1c mRNA (SREBP-1c mRNA; [7]) | PPARα mRNA expression (PPARα mRNA; [8]) | level of free cholesterol and esterified cholesterol (dHepaRG cells [2]) | IC50 [3] [µM] | ICAM-1 mRNA amount (ICAM-1 mRNA; 6-h and 12-h exposure) | SREBP-1c mRNA (SREBP-1c mRNA; [8]) | PPARα mRNA expression (PPARα mRNA; [7]) |
| --- | --- | --- | --- | --- | --- | --- | --- | --- | --- | --- | --- | --- | --- | --- | --- | --- | --- |
| C=C1C(=O)O[C@@H]2C[C@@]3(C)CCC[C@H](C)C3=C[C@H]12 [ATL, alantolactone] | significantly lesser toxicity | 58.9 ± 3.5 | 57.2 ± 1 | 30 | ~60 | concentration-dependent decrease in the cell viability | induced | induced | induction | decreased level | dysregulated | inhibited | no effect was observed | 10 to 30 | – | – | – |
| CC(C)=C1C/C=C(\C)CC/C=C(\C)CC1=O [GER, germacrone] | similar | 256 ± 5.7 | 242 ± 17.4 | 100 | ~250 | concentration-dependent decrease in the cell viability | induced | – | – | – | – | – | no effect was observed | 150 to 250 | induced | inhibited | no effect |
